These results are taken from US4000269A, “S-(α-substituted-arylmethylthio, -arylmethylsulfinyl, and -arylmethylsulfonyl)methyl phosphorus esters used as insecticides” (priority 1975, dated 1976).

Holding throughout (type): in vivo
The test system of assay [1] is Tarnished Plant Bug (Lygus lineolaris). In words: A. Tarnished Plant Bug leaf-dip test. Particulars: 48 h, read-out: Percent Mortality, Tarnished plant Bug. The procedure:
Test compounds are prepared as 1000 ppm. solutions in 10 % acetone, 0.2 % Alrodyne 315 , and 89.8 % water. A tenfold dilution is made with 65 % acetone and 35 % water. The primary leaves of Sieva lima bean plants are dipped for 3 to 5 seconds in the test solutions and placed in an exhaust hood to dry. When dry, each leaf is placed in a 4 -inch petri dish with a moist filter paper on the bottom. Ten adult Lygus bugs are aspirated from the stock culture and placed in the petri dish. The dishes are covered and held at 80° F. and 50 % R.H. After 2 days, mortality counts are made.

Assay [2] has as its system Mexican Bean Beetle (Epilachna varivestis). In words: F. Mexican Bean Beetle leaf-dip test. The note with it: 48 h, 2 days, read-out: Percent Mortality, Mexican Bean Beetle. The protocol:
Compounds to be tested are made up as 100 or 10 ppm. solutions in 65 % acetone/35 % water. Sieva lima bean leaves are dipped in the test solution and set in the hood to dry. When dry, they are placed in 4 -inch petri dishes which have a moist filter paper in the bottom, and 10 third-instar bean beetles are added to each dish. The dishes are covered and held at 80° F., 60 % R.H. After 2 days, mortality counts and estimates of the amount of feeding are made. Compounds showing kills greater than 75 % are further tested at tenfold dilutions in 65 % acetone/35 % water.

In assay [3] the test system is Western Potato Leafhopper (Empoasca abrupta). In words: G. Western Potato Leafhopper plant-dip test. Particulars: 48 h, 2 days, read-out: Percent Mortality, Western Potato Leafhopper. The procedure: Sieva lima bean plants with the primary leaf expanded to 3 to 4 inches are dipped into 100 or 10 ppm. 50 % acetone/50 % water solutions and set in the hood to dry. A 1 -inch piece of the tip of a treated leaf is cut off and placed in a 4 -inch petri dish with a moist filter paper in the bottom. From 3 to 10 second-instar nymphs are tapped from the culture plants into the test dish and rapidly covered. Mortality counts are made after 2 days at 80° F., and 50 % R.H.

The subject of a further assay is Bean Aphid (Aphis fabae). Kind of assay: C. Bean Aphid spray test. The note with it: 48 h, read-out: Percent Mortality, Bean Aphid. The procedure:
Compounds are tested at 100 , 10 and 1 ppm. in solution or suspension in 65 % acetone/35 % water. Two-inch fiber pots each containing a nasturtium plant 2 inches high and infested with about 150 aphids 2 days earlier, are placed on a turntable (4 RPM) and sprayed for two revolutions with a No. 154 DeVilbiss Atomizer at 20 psi. air pressure. The spray tip is held about 6 inches from the plants, and the spray is directed so as to give complete coverage of the aphids and the plants. The sprayed plants are laid on their sides on white enamel trays. Mortality estimates are made after holding for 2 days at 70° F. and 50% R.H.

Assay [4] has as its system Malaria Mosquito (Anopheles quadrimaculatus). In words: H. Malaria Mosquito Adult Test. The note with it: 24 h, adults, 1 day, read-out: Percent Mortality, Malaria Mosquito. The protocol:
Solutions of 65% acetone/35% water containing 10 ppm. of test compound are poured into wide-mouth 2-ounce jars, each containing a microscope slide. The slides are removed from the test solution with forceps and laid horizontally to dry on a wide-mouth 4-ounce bottle. When dry, they are placed in the same 4-ounce bottle and 10 4- to 5-day-old mosquitoes of mixed sexes are added to each bottle. A piece of cotton gauze held on by an elastic band serves as a lid, and wad of cotton soaked in 10% honey solution serves as food. Mortality counts are made after 1 day at 80° F., 50% R.H. (relative humidity) Data obtained with the above procedures are reported in Table II below.

Assay [5] relates to Southern Armyworm (Prodenia eridania). Kind of assay: D. Southern Armyworm leaf-dip test. Particulars: Spodoptera eridania, 48 h, read-out: Percent Mortality, Southern Armyworm. The protocol:
Compounds are tested at 1000 and 100 ppm. in solution or suspension in 65 % acetone/35 % water. Sieva lima bean primary leaves are dipped for 3 seconds in the test solution and set in a hood on a screen to dry. When dry, each leaf is placed in a 4 -inch petri dish which has a moist filter paper in the bottom and ten third-instar armyworm larvae about 3/8 inch long. The dishes are covered and held at 80° F., and 60 % R.H. After 2 days, mortality counts and estimates of the amount of feeding are made. Compounds showing partial kill and/or inhibition of feeding are held an extra day for further observations.

In assay [6] the test system is Boll Weevil (Anthonomus grandis). In words: B. Boll Weevil leaf-dip test. The note with it: 48 h, read-out: Percent Mortality, Boll Weevil. The protocol: Test compounds are prepared as 1000 ppm. solutions in 10 % acetone, 0.2 % Alrodyne 315 , and 89.8 % water. A tenfold dilution is made with 65 % acetone and 35 % water. The first or second true leaf of young cotton plants is dipped for 3 to 5 seconds in the test solution and placed in an exhaust hood to dry. When dry, each leaf is placed in a 4 -inch petri dish with a moist filter paper on the bottom. Ten adult boll weevils are removed from the stock culture and placed in the petri dish. The dishes are covered and held at 80° F. and 50 % R.H. After 2 days, mortality counts are made.

The subject of assay [7] is Two-spotted Spider Mite (Tetranychus urticae). Kind of assay: E. Two-spotted Spider Mite plant-dip test. Particulars: 48 h, read-out: Percent Mortality, Two-spotted Spider Mite; for mortality at 100 ppm: 2 days. The protocol: Sieva lima bean plants with primary leaves 3 to 4 inches long are infested with about 100 adult mites per leaf 4 hours before use in this test. The mite and egg infested plants are dipped for 3 seconds in the same solutions used in the aphid test, and the plants set in the hood to dry. They are held for 2 days at 80° F., 60% R.H., and the adult mite mortality estimated on one leaf under a steroscopic microscope. The other leaf is left on the plant an additional 5 days and then examined at 10 X power to estimate the kill of eggs and of newly hatched nymphs, giving a measure of ovicidal and residual action, respectively.

Read-outs that look alike come from different tables or passages of the source.

Broadly, the mortality is the percentage killed.

For `COP(=S)(OC)SCSC(C)(C)c1cccc(Cl)c1Cl` [drawing 12], the mortality at 100 ppm was 0% in assay [1]; 60% in assay [2]; 100% in assay [3]; 0% in assay [5] (2 days); 0% in assay [6]; 0% in assay [7]. In addition, the mortality at 1 ppm with Bean Aphid (Aphis fabae) is 75%. In addition, the mortality at 10 ppm in assay [4] is 90%. Also, in assay [5], the mortality at 1000 ppm turned out to be 100%. Besides, the mortality at 300 ppm in assay [7] amounted to 0%.
Consider `CCOP(=S)(OCC)SCSC(CC)(CC)c1ccccc1` [drawing 15], for which the mortality at 100 ppm was determined as 0% in assay [1] (100 ppm., 2 days); 90% in assay [2]; 0% in assay [3]; 100% with Bean Aphid (Aphis fabae) (2 days); 0% in assay [5] (2 days); 0% in assay [6] (100 ppm., 2 days). In addition, the mortality at 10 ppm in assay [2] was 0%; with Bean Aphid (Aphis fabae) (2 days), 100%; in assay [4] it was 0%. Further, the mortality at 1 ppm in the assay with Bean Aphid (Aphis fabae) (1 ppm., 2 days) turned out to be 0%. Also, the mortality at 1000 ppm in assay [5] (1000 ppm., 2 days) amounted to 100%. The mortality at 300 ppm in assay [7] stood at 0%.
As to `COP(=S)(OC)SCSC(C)(C)c1ccc(Cl)cc1` [drawing 22], the mortality at 100 ppm came out at 0% in assay [1] (100 ppm., 2 days); 50% in assay [2]; 100% in assay [3]; 100% in the assay with Bean Aphid (Aphis fabae) (2 days); 100% in assay [5] (2 days); 100% in assay [6] (100 ppm., 2 days). In assay [7], the mortality at 100 ppm was 100%. Besides, the mortality at 10 ppm in assay [2] worked out at 0%; in assay [3], 0%; in the assay with Bean Aphid (Aphis fabae) (2 days), 100%; in assay [4], 100%. The mortality at 1 ppm in the assay with Bean Aphid (Aphis fabae) (1 ppm., 2 days) stood at 100%. Also, the mortality at 1000 ppm in assay [5] (1000 ppm., 2 days) came to 100%. The mortality at 300 ppm in assay [7] is 100%.
`CCCSP(=O)(OCC)SCSC(C)(C)c1ccccc1` (stereo not shown) [drawing 16]: the mortality at 100 ppm in assay [1] (100 ppm., 2 days) was 0%; in assay [2], 80%; in assay [3], 100%; in the assay with Bean Aphid (Aphis fabae) (2 days), 100%; in assay [5] (2 days), 100%; in assay [6] (100 ppm., 2 days) it was 0%. Besides, the mortality at 100 ppm in assay [7] came to 100%. Further, the mortality at 10 ppm came to 80% in assay [2], 0% in assay [3], 100% in the assay on Bean Aphid (Aphis fabae) (2 days) and 0% in assay [4]. Further, in the assay on Bean Aphid (Aphis fabae) (1 ppm., 2 days), the mortality at 1 ppm came out at 90%. Besides, in assay [5] (1000 ppm., 2 days), the mortality at 1000 ppm was found to be 100%. The mortality at 300 ppm in assay [7] was found to be 100%.
In the case of `CCOP(=S)(OCC)SCSC(C)(C)c1ccc(Cl)c(Cl)c1` [drawing 20], the mortality at 100 ppm in assay [1] (100 ppm., 2 days) was found to be 0%; in assay [2] it was 30%; in assay [3], 100%; in the assay with Bean Aphid (Aphis fabae) (2 days) it was 100%; in assay [5] (2 days) it was 100%; in assay [6] (100 ppm., 2 days), 50%. In assay [7], the mortality at 100 ppm was determined as 100%. Besides, the mortality at 10 ppm in assay [2] was 0%; in assay [3], 0%; in the assay on Bean Aphid (Aphis fabae) (2 days), 90%; in assay [4], 0%. Further, in the assay on Bean Aphid (Aphis fabae) (1 ppm., 2 days), the mortality at 1 ppm came to 0%. Also, the mortality at 1000 ppm in assay [5] (1000 ppm., 2 days) amounted to 100%. For the same compound, the mortality at 300 ppm in assay [7] is 100%.
Consider `COP(=S)(OC)SCSC(C)(C)c1ccc(C#N)cc1` [drawing 9], for which the mortality at 100 ppm came to 0% in assay [1] (100 ppm., 2 days); 90% in assay [2]; 100% in assay [3]; 100% with Bean Aphid (Aphis fabae) (2 days); 100% in assay [5] (2 days); 90% in assay [6] (100 ppm., 2 days). The mortality at 100 ppm in assay [7] is 100%. Moreover, the values for the mortality at 10 ppm (in assay [3]; with Bean Aphid (Aphis fabae) (2 days); in assay [4]) were 100%, 100% and 60%, respectively. In addition, the mortality at 1 ppm in the assay on Bean Aphid (Aphis fabae) (1 ppm., 2 days) was determined as 100%. Besides, the mortality at 1000 ppm in assay [5] (1000 ppm., 2 days) turned out to be 100%. In assay [7], the mortality at 300 ppm worked out at 100%.
Turning to `COP(=S)(OC)SCSC(C)(C)c1ccc(Cl)c(Cl)c1` [drawing 21], the mortality at 100 ppm in assay [1] (100 ppm., 2 days) amounted to 40%; in assay [2], 30%; in assay [3], 100%; with Bean Aphid (Aphis fabae) (2 days), 100%; in assay [5] (2 days), 100%; in assay [6] (100 ppm., 2 days), 70%. Further, the mortality at 100 ppm in assay [7] was determined as 100%. Also, the mortality at 10 ppm in assay [2] came out at 0%; in assay [3] it was 0%; in the assay on Bean Aphid (Aphis fabae) (2 days), 100%; in assay [4], 67%. Also, the mortality at 1 ppm in the assay with Bean Aphid (Aphis fabae) (1 ppm., 2 days) is 98%. The mortality at 1000 ppm in assay [5] (1000 ppm., 2 days) worked out at 100%. Also, in assay [7], the mortality at 300 ppm came out at 100%.
As for `CCOP(=S)(OCC)SCSC(C)(C)c1ccc(Cl)cc1` [drawing 18], the mortality at 100 ppm in assay [1] (100 ppm., 2 days) was determined as 0%; in assay [2], 100%; in assay [3], 100%; with Bean Aphid (Aphis fabae) (2 days) it was 100%; in assay [5] (2 days) it was 100%; in assay [6] (100 ppm., 2 days), 0%. Besides, the mortality at 100 ppm in assay [7] was 100%. In addition, the mortality at 10 ppm in assay [2] amounted to 40%; in assay [3], 100%; in the assay with Bean Aphid (Aphis fabae) (2 days) it was 100%; in assay [4] it was 75%. Also, the mortality at 1 ppm in the assay with Bean Aphid (Aphis fabae) (1 ppm., 2 days) amounted to 90%. Besides, the mortality at 1000 ppm in assay [5] (1000 ppm., 2 days) was determined as 100%. Besides, the mortality at 300 ppm in assay [7] came to 100%.
In the case of `CCOP(=S)(OCC)SCSC(C)(C)c1cc(Cl)ccc1Cl` [drawing 11], the mortality at 100 ppm in assay [1] (100 ppm., 2 days) was found to be 0%; in assay [2], 0%; in assay [3], 100%; in the assay with Bean Aphid (Aphis fabae) (2 days), 100%; in assay [5] (2 days) it was 100%; in assay [6] (100 ppm., 2 days), 50%. Also, the mortality at 100 ppm in assay [7] was determined as 90%. In addition, the results for the mortality at 10 ppm (in assay [3]; in the assay on Bean Aphid (Aphis fabae) (2 days); in assay [4]) were 50%, 100% and 30%, respectively. In the assay on Bean Aphid (Aphis fabae) (1 ppm., 2 days), the mortality at 1 ppm came to 50%. Also, in assay [5] (1000 ppm., 2 days), the mortality at 1000 ppm was 100%. Also, the mortality at 300 ppm in assay [7] came to 100%.
